Measurements taken from patent US7884117B2, “Carbonylamino pyrrolopyrazoles, potent kinase inhibitors” (Pfizer Inc., priority 2005, dated 2011).
pEC50, pKi: −log10 of the molar value. “And” between values parts separate entries of the source, which are not always exact repeats. Equal entries are not always repeated. “Also recorded” adds a separate entry of the source.

Experiments:
[1] = target: T1, PAK4 Kinase domain (PAK4 KD) (Homo sapiens, UniProt O96013); assay: PAK4 kinase domain enzymatic assay (PK/LDH-coupled, Ki); type: biochemical; settings: PAK4 Kinase Domain
T1 construct: Cloning, expression, and purification of recombinant PAK4 Kinase domain (PAK4 KD); His tag (pET28a(+)/pET24a(+), Ni-NTA purification) (N, cleaved yes); GST (pGST4.5, glutathione column) (N, cleaved yes); made in house; host or cells: E. coli BL21(DE3)

[2] = system: HCT116 human colorectal carcinoma tumor xenografts; assay: Tumor growth inhibition and tumor growth delay of HCT116 xenografts in athymic mice; type: in vivo; settings: for Tumor growth inhibition (TGI) % TGImax d39 / Tumor growth delay T-C1250 mm3: oral gavage; for Tumor growth inhibition (TGI) % TGImax d39: day 39, vs vehicle; for Tumor growth delay T-C1250 mm3: evaluation size 1250 mm3
Experimental: Material and preparation: The HCT116 cell line was obtained from American Type Culture Collection (ATCC, Bethesda, Md.). Cells were grown as monolayers in McCoy's media each supplemented with 10% FBS (each from Life Technologies, Inc., Bethesda, Md.) and maintained at 37° C. in a humidified atmosphere at 5% CO2. Tumor cells for implantation into athymic mice were harvested near confluence by incubation with 0.05% Trypsin-EDTA. Cells were pelleted at 450×g for 5-10 minutes and the cell pellets were re-suspended in serum-free McCoy's medium supplemented with 50% matrigel. Tumor cells (1×10^6 cells/animal) were implanted s.c. into the hindflank region of each mouse on day 0 and allowed to grow to the designated size prior to the administration of compound for each experiment.
Tumor growth inhibition: Treatment was initiated when tumors were approximately 200 mm3 in size. Compound of Example 2 or vehicle (methyl cellulose, MC) was administered as an oral gavage daily or every other day at 10 mL/kg. Tumors were measured using Vernier calipers, and tumor volumes were calculated utilizing the formula length×width2×0.4. Tumor volume was measured on the indicated days, with the median tumor volume indicated for each group of 12 animals; median±SEM. At the end of the study, the maximum percent tumor growth inhibition was calculated as 100×(tumor volumefinal−tumor volumeinitial) for Compound 1f Example 2-treated group/(tumor volumefinal−tumor volumeinitial) for vehicle group on day 39 and tumor growth delay was calculated as median […] when median tumor volume reached 1250 mm^3.
Tumor growth delay: Treatment with Compound of Example 2 began on day 11 when tumors reached a volume of ˜200 mm^3 and continued for 28 days until the control tumors reached evaluation size (1250 mm^3). Tumor measurement continued until treated tumors reached evaluation size (1250 mm^3) in order to assess tumor growth delay. Compound of Example 2 was administered to tumor-bearing mice by oral gavage as a solution in MC in 10 mL/kg volume and compared with vehicle alone administered in the same volume.

[3] = target: T2, PAK4 kinase activity in whole cells (TR-293-KDG, modified HEK 293) (Homo sapiens, UniProt O96013); assay: PAK4 cellular assay: sandwich ELISA of PAK4-dependent phosphorylation of GEF-H1b in TR-293-KDG cells; type: cell-based; settings: 3-hour exposure
T2 construct: engineered to overexpress both GEF-H1b and the kinase domain (KD) of PAK4; expressed in transfected cells; host or cells: TR-293-KDG (modified HEK 293, Trex system, Invitrogen)
T2 sequence (O96013 321-572 limits assumed): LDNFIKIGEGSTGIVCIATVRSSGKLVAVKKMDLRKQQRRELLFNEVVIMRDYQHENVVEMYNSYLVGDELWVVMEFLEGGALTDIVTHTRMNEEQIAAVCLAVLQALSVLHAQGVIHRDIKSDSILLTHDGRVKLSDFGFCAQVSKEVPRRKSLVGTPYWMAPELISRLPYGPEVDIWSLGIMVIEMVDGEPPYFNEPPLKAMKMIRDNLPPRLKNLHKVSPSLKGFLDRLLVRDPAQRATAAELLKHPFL
Experimental: A sandwich ELISA method was used to measure the PAK4 kinase activity in whole cells. The level of PAK4-dependent phosphorylation of GEF-H1b can be determined by monitoring the binding of a phosphospecific antibody to GEF-H1b. […] The KD of PAK4 is inducible in this cell line by tetracycline (Trex system, Invitrogen). […] To establish a phosphorylation event on GEF-HL, cells are induced with doxycycline to express the PAK4 KD. […] Candidate substance effect is measured as the ability to block this phosphorylation event.
ELISA plate was prepared by pre-coating the plates with a capture antibody (α-HA-tag mouse monoclonal antibody), blocked with BSA, and washed in 0.1% tween 20 in tris-buffered saline (TBST). […] Cells were then lysed with a modified RIPA buffer supplemented with protease inhibitors. […] Between all subsequent steps plates were washed 4 times with TBST. Detection antibody (recognizing the phospho-specific eptitope on GEF-H1b) was added for 1 hour, followed by addition of an enzyme linked goat α-rabbit secondary antibody for 45 minutes. […] EC50 values were calculated by sigmoid curve fitting using a four-parameter analysis.

T1 sequence (O96013 321-572 limits assumed): as above

Row | pKi [1] | pEC50 [3] | Structure (SMILES) | other results
1 | 6.36 | 6.52 | CN(Cc1ccccc1)C[C@@H](OC(=O)N1Cc2c(NC(=O)c3ccc(F)cc3)n[nH]c2C1(C)C)c1ccccc1 [Example 82, (1S)-2-[benzyl(methyl)amino]-1-phenylethyl 3-[(4-fluorobenzoyl)amino]-6,6-dimethyl-4,6-dihydropyrrolo[3,4-c]pyrazole-5(1H)-carboxylate] | –
2 | 6.46 | 6.99 | CN(C)C[C@@H](OC(=O)N1Cc2c(NC(=O)[C@@H]3CCCO3)n[nH]c2C1(C)C)c1ccccc1 [Example 92, (S)-2-(dimethylamino)-1-phenylethyl 6,6-dimethyl-3-((S)-tetrahydrofuran-2-carboxamido)pyrrolo[3,4-c]pyrazole-5(1H,4H,6H)-carboxylate] | –
3 | 6.45 | 8.06 | CO[C@H](C)C(=O)Nc1n[nH]c2c1CN(C(=O)O[C@H](CN(C)C)c1ccccc1)C2(C)C [Example 117, (S)-2-(dimethylamino)-1-phenylethyl 3-((R)-2-methoxypropanamido)-6,6-dimethylpyrrolo[3,4-c]pyrazole-5(1H,4H,6H)-carboxylate] | –
4 | 6.59 | 7.28 | CN(C)C[C@@H](OC(=O)N1Cc2c(NC(=O)C3CCOC3)n[nH]c2C1(C)C)c1ccccc1 (stereo partly drawn) [Example 119, (S)-2-(dimethylamino)-1-phenylethyl 6,6-dimethyl-3-(tetrahydrofuran-3-carboxamido)pyrrolo[3,4-c]pyrazole-5(1H,4H,6H)-carboxylate] | –
5 | 6.79 | 6.38 | CN(C)CC(OC(=O)N1Cc2c(NC(=O)c3ccc(F)cc3)n[nH]c2C1(C)C)c1cccc2cccnc12 (stereo not shown) [Example 94, 2-(dimethylamino)-1-(quinolin-8-yl)ethyl 3-(4-fluorobenzamido)-6,6-dimethylpyrrolo[3,4-c] pyrazole-5(1H,4H,6H)-carboxylate] | –
6 | 7.45 | 7.06 | COc1ccc(CC(=O)Nc2n[nH]c3c2CN(C(=O)O[C@H](CN(C)C)c2ccccn2)C3(C)C)cc1 [Example 88, (1R)-2-(dimethylamino)-1-pyridin-2-ylethyl 3-{[(4-methoxyphenyl)-acetyl]amino}-6,6-dimethyl-4,6-dihydropyrrolo[3,4-c]pyrazole-5(1H)-carboxylate] | –

Further lines, the compound ahead of its results:

Row | Structure (SMILES) | pKi [1] | pEC50 [3] | other results
7 | CN(C)C[C@@H](OC(=O)N1Cc2c(NC(=O)c3ccc(F)cc3)n[nH]c2C1(C)C)c1ccccc1 [Example 2, (1S)-2-(dimethylamino)-1-phenylethyl 3-[(4-fluorobenzoyl)amino]-6,6-dimethyl-4,6-dihydropyrrolo[3,4-c]pyrazole-5(1H)-carboxylate] | 7.78 | 8.01 | Tumor growth inhibition (TGI) % TGImax d39 ([2]; 50 mg/kg QD): 50%; Tumor growth delay T-C1250 mm3 ([2]; 50 mg/kg QD): 12.2 days; Tumor growth inhibition (TGI) % TGImax d39 ([2]; 75 mg/Kg/QOD): 37% and 36.6%; Tumor growth delay T-C1250 mm3 ([2]; 75 mg/Kg/QOD): 9.8 days; in vivo tumor growth inhibition/delay (in words) ([2]; HCT116 xenografts in athymic mice, oral): showed in vivo tumor growth inhibition; also recorded: inhibited/delayed growth; general health and body weight of treated mice ([2]; throughout the 28 day treatment cycle, oral): generally appeared healthy and continued to gain weight
8 | CN(C)C[C@@H](OC(=O)N1Cc2c(NC(=O)c3cccc4c3OCC4)n[nH]c2C1(C)C)c1ccccc1 [Example 81, (1S)-2-(dimethylamino)-1-phenylethyl 3-[(2,3-dihydro-1-benzofuran-7-ylcarbonyl)amino]-6,6-dimethyl-4,6-dihydropyrrolo[3,4-c]pyrazole-5(1H)-carboxylate] | 6.62 | 6.98 | –
9 | CN(C)C[C@@H](OC(=O)N1Cc2c(NC(=O)c3ccc(F)cc3)n[nH]c2C1(C)C)c1ccccn1 [Example 25, (1R)-2-(dimethylamino)-1-pyridin-2-ylethyl 3-[(4-fluorobenzoyl)amino]-6,6-dimethyl-4,6-dihydropyrrolo[3,4-c]pyrazole-5(1H)-carboxylate] | 7.10 | 6.82 | –
10 | CN(C)C[C@@H](NC(=O)N1Cc2c(NC(=O)c3ccccn3)n[nH]c2C1(C)C)c1ccccc1 [Example 51, N-[(1S)-2-(dimethylamino)-1-phenylethyl]-6,6-dimethyl-3-[(pyridin-2-ylcarbonyl)amino]-4,6-dihydropyrrolo[3,4-c]pyrazole-5(1H)-carboxamide] | 6.93 | 7.69 | –
11 | CN(C)C[C@@H](OC(=O)N1Cc2c(NC(=O)c3ccccc3F)n[nH]c2C1(C)C)c1ccccc1 [Example 3, (1S)-2-(dimethylamino)-1-phenylethyl 3-[(2-fluorobenzoyl)amino]-6,6-dimethyl-4,6-dihydropyrrolo[3,4-c]pyrazole-5(1H)-carboxylate] | 7.38 | 7.30 | –
12 | CN(C)C[C@@H](OC(=O)N1Cc2c(NC(=O)c3ccccc3)n[nH]c2C1(C)C)c1ccccn1 [Example 24, (1R)-2-(dimethylamino)-1-pyridin-2-ylethyl 3-(benzoylamino)-6,6-dimethyl-4,6-dihydropyrrolo[3,4-c]pyrazole-5(1H)-carboxylate] | 7.20 | 6.85 | –
13 | CN(C)C[C@@H](NC(=O)N1Cc2c(NC(=O)c3cscn3)n[nH]c2C1(C)C)c1ccccc1 [Example 72, N-[(1S)-2-(dimethylamino)-1-phenylethyl]-6,6-dimethyl-3-[(1,3-thiazol-4-ylcarbonyl)amino]-4,6-dihydropyrrolo[3,4-c]pyrazole-5(1H)-carboxamide] | 7.03 | 6.44 | –
14 | CN(C)C[C@@H](NC(=O)N1Cc2c(NC(=O)C3CCC3)n[nH]c2C1(C)C)c1ccccc1 [Example 53, 3-[(cyclobutylcarbonyl)amino]-N-[(1S)-2-(dimethylamino)-1-phenylethyl]-6,6-dimethyl-4,6-dihydropyrrolo[3,4-c]pyrazole-5(1H)-carboxamide] | 6.68 | 7.55 | –
15 | CC(C)C[C@@H](CN(C)C)OC(=O)N1Cc2c(NC(=O)c3ccc(C(F)(F)F)cc3)n[nH]c2C1(C)C [Example 79, (1S)-1-[(dimethylamino)methyl]-3-methylbutyl 6,6-dimethyl-3-{[4-(trifluoromethyl)benzoyl]amino}-4,6-dihydropyrrolo[3,4-c]pyrazole-5(1H)-carboxylate] | 7.02 | 5.67 | –
16 | CN(C)C[C@@H](OC(=O)N1Cc2c(NC(=O)C3CCCO3)n[nH]c2C1(C)C)c1ccccc1 (stereo partly drawn) [Example 15, (1S)-2-(dimethylamino)-1-phenylethyl 6,6-dimethyl-3-[(tetrahydrofuran-2-ylcarbonyl)amino]-4,6-dihydropyrrolo[3,4-c]pyrazole-5(1H)-carboxylate] | 6.84 | 7.79 | –
17 | CN(C)C[C@@H](OC(=O)N1Cc2c(NC(=O)c3cscn3)n[nH]c2C1(C)C)c1ccccc1 [Example 68, (1S)-2-(dimethylamino)-1-phenylethyl 6,6-dimethyl-3-[(1,3-thiazol-4-ylcarbonyl)amino]-4,6-dihydropyrrolo[3,4-c]pyrazole-5(1H)-carboxylate] | 7.32 | 7.47 | –
18 | CN(C)C[C@@H](OC(=O)N1Cc2c(NC(=O)C(C)(C)C)n[nH]c2C1(C)C)c1ccccc1 [Example 10, (1S)-2-(dimethylamino)-1-phenylethyl 3-[(2,2-dimethylpropanoyl)amino]-6,6-dimethyl-4,6-dihydropyrrolo[3,4-c]pyrazole-5(1H)-carboxylate] | 7.12 | 8.14 | –
19 | CC(C)C[C@@H](CN(C)C)OC(=O)N1Cc2c(NC(=O)C3CCC3)n[nH]c2C1(C)C [Example 80, (S)-1-[(dimethylamino)methyl]-3-methylbutyl 3-[(cyclobutylcarbonyl)amino]-6,6-dimethyl-4,6-dihydropyrrolo[3,4-c]pyrazole-5(1H)-carboxylate] | 6.12 | 7.92 | –
20 | CN(C)C[C@@H](OC(=O)N1Cc2c(NC(=O)C3CCCCO3)n[nH]c2C1(C)C)c1ccccc1 (stereo partly drawn) [Example 16, (1S)-2-(dimethylamino)-1-phenylethyl 6,6-dimethyl-3-[(tetrahydro-2H-pyran-2-ylcarbonyl)amino]-4,6-dihydropyrrolo[3,4-c]pyrazole-5(1H)-carboxylate] | 6.93 | 7.75 | –
